A value given as a limit tells only on which side of the number the result lay.

This assay addresses T1, Human complement C1s enzyme (Homo sapiens, UniProt P09871).
T1 construct: purified from human serum, Complement Technology, Inc; purchased Complement Technology, Inc; host or cells: human serum (plasma-derived native protein)
T1 sequence (P09871 438-688 limits assumed): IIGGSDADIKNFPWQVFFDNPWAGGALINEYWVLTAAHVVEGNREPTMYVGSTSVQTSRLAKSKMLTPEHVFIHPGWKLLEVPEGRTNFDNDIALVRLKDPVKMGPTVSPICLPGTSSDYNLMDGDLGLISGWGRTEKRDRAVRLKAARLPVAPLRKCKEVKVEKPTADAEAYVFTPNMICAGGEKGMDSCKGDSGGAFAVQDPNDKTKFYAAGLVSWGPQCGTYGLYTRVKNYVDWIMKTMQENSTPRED
T1 sequence (P09871 16-437 partner limits assumed): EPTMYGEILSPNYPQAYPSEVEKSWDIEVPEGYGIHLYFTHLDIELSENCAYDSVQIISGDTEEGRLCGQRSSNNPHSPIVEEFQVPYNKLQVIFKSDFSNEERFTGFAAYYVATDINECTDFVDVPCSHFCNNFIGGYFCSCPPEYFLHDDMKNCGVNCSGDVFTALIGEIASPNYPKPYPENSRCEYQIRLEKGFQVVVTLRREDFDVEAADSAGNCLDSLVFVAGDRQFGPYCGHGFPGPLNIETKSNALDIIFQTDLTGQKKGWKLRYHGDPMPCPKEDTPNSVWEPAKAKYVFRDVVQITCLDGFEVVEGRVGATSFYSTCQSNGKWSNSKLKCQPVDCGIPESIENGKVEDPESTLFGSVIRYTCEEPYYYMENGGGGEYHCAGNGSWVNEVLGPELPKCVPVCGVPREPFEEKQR
The assay is described as follows: Human C1s enzyme assay. The format is biochemical. The conditions noted are these: human complement C1s enzyme 1.16 nM, substrate Z-L-Lys-SBzl, A405; read-out: IC50 (Stars). Summed up: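 Thioesterase activity followed colorimetrically (DTNB, A405, 30-s reads) using 100 μM Z-L-Lys-SBzl substrate. Enzyme, human serum-derived C1s at 1.16 nM final, was incubated with test compound for 5 min, room temperature, pH 7.5 Tris buffer with 1 M NaCl. Rate-versus-concentration data fitted by nonlinear regression for IC50.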

Consider `O=C(Cn1c(-c2ccccc2F)ncc(N[C@H]2CCc3ccccc32)c1=O)NCc1cc2cnccc2[nH]1` [Compound 394, (S)—N-((1H-pyrrolo[3,2-c]pyridine-2-yl)methyl)-2-(5-((2,3-dihydro-1H-inden-1-yl)amino)-2-(2-fluorophenyl)-6-oxopyrimidin-1(6H)-yl)acetamide], for which the IC50 is under 100 nM.
Turning to `O=C(Cn1c(-c2ccccc2)ncc(NS(=O)(=O)c2ccccc2)c1=O)NCc1cc2cnccc2[nH]1` [Compound 395, N-((1H-pyrrolo[3,2-c]pyridin-2-yl)methyl)-2-(6-oxo-2-phen-yl-5-(phenylsulfonamido)-pyrimidin-1(6H)-yl)acetamide], the 50% inhibitory concentration (IC50) was over 1000 nM.
The same measure for `C[C@@H](Nc1cnc(-c2ccccc2F)n(CC(=O)NCc2cc3cnccc3[nH]2)c1=O)c1cc2c(cc1F)oc1ccccc12` [Compound 396, (R)-N-((1H-pyrrolo[3,2-c]pyridin-2-yl)methyl)-2-(5-((1-(3-fluorodibenzo[b,d]furan-2-yl)ethyl)amino)-2-(2-fluoro-phenyl)-6-oxopyrimidin-1(6H)-yl)acetamide]: under 100 nM; for `C[C@@H](Nc1cnc(-n2cccc2)n(CC(=O)NCc2cc3cnccc3[nH]2)c1=O)c1ccc2oc3ccccc3c2c1` [Compound 397, (R)-N-((1H-pyrrolo[3,2-c]pyridin-2-yl)methyl)-2-(5-((1-(dibenzo[b,d]furan-2-yl)ethyl)-amino)-6-oxo-2-(1H-pyrrol-1-yl)pyrimidin-1(6H)-yl)acet-amide]: under 100 nM.
The same measure for `C[C@@H](Nc1cnc(N2CCCC(F)C2)n(CC(=O)NCc2cc3cnccc3[nH]2)c1=O)c1ccc2oc3ccccc3c2c1` (stereo partly drawn) [Compound 398, N-((1H-pyrrolo[3,2-c]pyridin-2-yl)methyl)-2-(5-(((R)-1-(dibenzo[b,d]furan-2-yl)ethyl)-amino)-2-(3-fluoropiperidin-1-yl)-6-oxopyrimidin-1(6H)-yl)-acetamide]: under 100 nM; for `C[C@@H](Nc1cnc(N2CCCC(F)(F)C2)n(CC(=O)NCc2cc3cnccc3[nH]2)c1=O)c1ccc2oc3ccccc3c2c1` [Compound 399, (R)-N-((1H-pyrrolo[3,2-c]pyridin-2-yl)methyl)-2-(5-((1-(dibenzo[b,d]furan-2-yl)ethyl)-amino)-2-(3,3-difluoropiperi-din-1-yl)-6-oxopyrimidin-1(6H)-yl)acetamide]: under 100 nM; for `C[C@@H](Nc1cnc(N2CCCC2=O)n(CC(=O)NCc2cc3cnccc3[nH]2)c1=O)c1ccc2oc3ccccc3c2c1` [Compound 400, (R)-N-((1H-pyrrolo[3,2-c]pyridin-2-yl)methyl)-2-(5-((1-(dibenzo[b,d]furan-2-yl)ethyl)-amino)-6-oxo-2-(2-oxopyr-rolidin-1-yl)pyrimidin-1(6H)-yl)acetamide]: under 100 nM.
For the compound `C[C@@H](Nc1cnc(N2CCC(F)(F)C2)n(CC(=O)NCc2cc3cnccc3[nH]2)c1=O)c1ccc2oc3ccccc3c2c1` [Compound 401, (R)-N-((1H-pyrrolo[3,2-c]pyridin-2-yl)methyl)-2-(5-((1-(dibenzo[b,d]furan-2-yl)ethyl)-amino)-2-(3,3-difluoropyrroli-din-1-yl)-6-oxopyrimidin-1(6H)-yl)acetamide], the IC50 was in the range of 100 to 1000 nM.
Next, `C[C@@H](Nc1cnc(N2CCCC(C(F)(F)F)C2)n(CC(=O)NCc2cc3cnccc3[nH]2)c1=O)c1ccc2oc3ccccc3c2c1` (stereo partly drawn) [Compound 402, N-((1H-pyrrolo[3,2-c]pyridin-2-yl)methyl)-2-(5-(((R)-1-(dibenzo[b,d]furan-2-yl)ethyl)-amino)-6-oxo-2-(3-(trifluoro-methyl)piperidin-1-yl)pyrimi-din-1(6H)-yl)acetamide]: 100 to 1000 nM; `O=C(Cn1c(-c2ccccc2F)ncc(NC2(c3ccc4oc5ccccc5c4c3)CC2)c1=O)NCc1cc2cnccc2[nH]1` [Compound 403, N-((1H-pyrrolo[3,2-c]pyridine-2-yl)methyl)-2-(5-((1-(dibenzo[b,d]furan-2-yl)cyclopropyl)amino)-2-(2-fluorophenyl)-6-oxopyrimidin-1(6H)-yl)acetamide]: under 100 nM.

The record behind these values is US20260184707A1, “PHARMACEUTICAL COMPOUNDS FOR THE TREATMENT OF COMPLEMENT MEDIATED DISORDERS” (ALEXION PHARMACEUTICALS, INC., priority 2022, published 2026).
